Test systems include SF-539 CNS; HCT-116 colon; KM12 colon; HOP-92 NSCLC; UACC-62 melanoma; MALME-3M melanoma; HCT-15 colon; UACC-257 melanoma; SR leukemia.
Assay in all cases: NCI tumour cell line growth inhibition, 48 h

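Compound exposure: 48 hours, 5 concentrations, 96-well plates. GI50 marks 50% less growth. TGI denotes the concentration required for complete inhibition of growth.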 Some results are limits rather than exact numbers.

Experimental findings from PubChem BioAssay (NCI) are described below.

For `COC(=O)c1cc(/C=C/c2ccc(S(N)(=O)=O)cc2)ccc1O`, the GI50 is 18.4 µM in the experiment with SF-539 CNS; 20 µM in the experiment with HCT-116 colon; 24 µM in the experiment with KM12 colon; 25.7 µM in the experiment with HOP-92 NSCLC; 25.6 µM with UACC-62 melanoma; 34.5 µM in the experiment with MALME-3M melanoma. For the same molecule, the GI50 with HCT-15 colon is 27 µM; in the experiment with UACC-257 melanoma, 59.6 µM. Also, the TGI in the experiment with SF-539 CNS is 47.4 µM; in the experiment on HCT-116 colon, more than 100 µM; with KM12 colon, more than 100 µM; in the experiment on HOP-92 NSCLC it was more than 100 µM; in the experiment with UACC-62 melanoma, 66 µM; in the experiment on MALME-3M melanoma, more than 100 µM. Besides, the TGI in the experiment with HCT-15 colon and in the experiment with UACC-257 melanoma was more than 100 µM each time.
`CC(C)(C)OC(=O)N1N=NC2C1C1CC(OCc3ccccc3)(OCc3ccccc3)C2O1` (stereo not given): the TGI is more than 100 µM with KM12 colon; more than 100 µM in the experiment with HOP-92 NSCLC; more than 100 µM in the experiment with UACC-62 melanoma; more than 100 µM with MALME-3M melanoma; more than 100 µM with HCT-15 colon; 63.7 µM in the experiment on UACC-257 melanoma.
For `COc1cc(C(=O)C/C(CCC(=O)Nc2ccc(Cl)cc2Cl)=N/NC(=O)C(=O)NN)ccc1O`, the TGI in the experiment on SF-539 CNS, with HCT-116 colon, with KM12 colon, in the experiment with HOP-92 NSCLC, with UACC-62 melanoma and in the experiment on MALME-3M melanoma was more than 100 µM in each case. Also, the TGI in the experiment on HCT-15 colon and in the experiment with UACC-257 melanoma was more than 100 µM each time.
Consider `OCCNCCOc1ccc(/C(=C(/Cl)c2ccccc2)c2ccccc2)cc1`, for which the TGI in the experiment on SF-539 CNS was 26.6 µM; with HCT-116 colon, 20.2 µM; with KM12 colon it was 13.5 µM; with SR leukemia it was 12.5 µM; with UACC-62 melanoma, 26.7 µM; in the experiment on HCT-15 colon, 18.6 µM. For the same molecule, the TGI in the experiment with UACC-257 melanoma was found to be 12 µM.
Take `O=C1C(=O)N(c2cc(Cl)ccc2Cl)C(=O)C(=O)C1c1nc2ccccc2o1`: the TGI in the experiment with SF-539 CNS was more than 100 µM; in the experiment on HCT-116 colon it was more than 100 µM; in the experiment with KM12 colon it was more than 31.6 µM; in the experiment with HOP-92 NSCLC, more than 100 µM; in the experiment on UACC-62 melanoma it was more than 100 µM; with MALME-3M melanoma it was more than 100 µM. The TGI in the experiment on HCT-15 colon and in the experiment on UACC-257 melanoma was more than 100 µM throughout.
`CCOC(=O)/C(=C/c1cccc(C#N)c1)N(CC)CC`: the TGI in the experiment with SF-539 CNS, with HCT-116 colon, with KM12 colon, in the experiment on SR leukemia, in the experiment on HOP-92 NSCLC and with UACC-62 melanoma was more than 100 µM throughout. For the same molecule, the TGI with MALME-3M melanoma, with HCT-15 colon and in the experiment on UACC-257 melanoma was more than 100 µM in each case.
On to `Oc1ccc(Br)cc1C=Nc1ccc(N=Cc2cc(Br)ccc2O)cc1`, for which the TGI with SF-539 CNS, with HCT-116 colon, in the experiment with KM12 colon, in the experiment on SR leukemia, in the experiment with HOP-92 NSCLC and with MALME-3M melanoma was more than 100 µM each time. Besides, the TGI with HCT-15 colon and in the experiment with UACC-257 melanoma was more than 100 µM throughout.
On to `N#CC(C(=O)CCC(=O)Nc1cccc(C(F)(F)F)c1)c1ccc(Cl)cc1` (stereo not given), for which the TGI with SF-539 CNS, in the experiment with HCT-116 colon, with KM12 colon, with HOP-92 NSCLC, in the experiment on UACC-62 melanoma and in the experiment on MALME-3M melanoma was more than 100 µM each time. For the same molecule, the TGI in the experiment with HCT-15 colon and in the experiment with UACC-257 melanoma was more than 100 µM throughout.
Regarding `Nc1ccc2nc3n(c2c1)C(=O)c1ccccc1-3`, the TGI in the experiment with SF-539 CNS, in the experiment with HCT-116 colon, in the experiment with KM12 colon, with SR leukemia, in the experiment on HOP-92 NSCLC and with UACC-62 melanoma was more than 100 µM in each case. Also, the TGI in the experiment on MALME-3M melanoma, in the experiment on HCT-15 colon and in the experiment on UACC-257 melanoma was more than 100 µM each time.
As to `CC(=O)OC1C2CCC1C1C2C2(Cl)C(Cl)=C(Cl)C1(Cl)C2(Cl)Cl` (stereo not given), the TGI with SF-539 CNS turned out to be 30.7 µM; in the experiment with HCT-116 colon it was 27.8 µM; in the experiment on KM12 colon, 27.6 µM; in the experiment on SR leukemia it was 24.6 µM; in the experiment on HOP-92 NSCLC, 23.3 µM; in the experiment with UACC-62 melanoma it was 27 µM. In addition, the TGI amounted to 27.1 µM with MALME-3M melanoma and 27.4 µM with UACC-257 melanoma.
As to `O=S1(=O)OCCOS(=O)(=O)C1Cl`, the TGI in the experiment with SF-539 CNS, with HCT-116 colon, with KM12 colon, with SR leukemia, in the experiment with HOP-92 NSCLC and in the experiment with UACC-62 melanoma was more than 100 µM throughout. The TGI with MALME-3M melanoma and with UACC-257 melanoma was more than 100 µM each time.
As for `O=C(O)CN(c1ccccc1)S(=O)(=O)c1ccc([N+](=O)[O-])cc1`, the TGI in the experiment with SF-539 CNS, in the experiment with KM12 colon, in the experiment on HOP-92 NSCLC, in the experiment on UACC-62 melanoma, in the experiment with MALME-3M melanoma and in the experiment with HCT-15 colon was more than 100 µM in each case. This molecule also registered a TGI in the experiment with UACC-257 melanoma of more than 100 µM.
For `O=c1c2ccccc2nc(-c2ccccc2)n1NC(=S)Nc1ccccc1`, the TGI with SF-539 CNS, with HCT-116 colon, in the experiment on KM12 colon, with SR leukemia, in the experiment with HOP-92 NSCLC and in the experiment on UACC-62 melanoma was more than 100 µM throughout. For the same molecule, the TGI in the experiment with MALME-3M melanoma, in the experiment with HCT-15 colon and in the experiment with UACC-257 melanoma was more than 100 µM in each case.
Regarding `CC1CN1c1c(C(=O)/C=C/c2ccc(Cl)cc2)c(-c2ccccc2)nn(C)c1=O` (stereo not given), the TGI with SF-539 CNS is 4.14 µM; in the experiment with HCT-116 colon, 6.47 µM; in the experiment on KM12 colon it was more than 10 µM; in the experiment on HOP-92 NSCLC it was more than 10 µM; in the experiment with UACC-62 melanoma it was 5.69 µM; in the experiment with MALME-3M melanoma it was more than 10 µM. The TGI was 3.55 µM in the experiment with HCT-15 colon and more than 10 µM with UACC-257 melanoma.
Take `COC(=O)c1cccc2cccc(C(=O)Nc3ccc(Cl)cc3)c12`: the TGI was more than 100 µM in the experiment with SF-539 CNS; more than 100 µM in the experiment on HCT-116 colon; more than 100 µM in the experiment on KM12 colon; 50.8 µM in the experiment on SR leukemia; more than 100 µM in the experiment with HOP-92 NSCLC; more than 100 µM with MALME-3M melanoma. Also, the TGI is more than 53.1 µM in the experiment on HCT-15 colon and more than 100 µM in the experiment with UACC-257 melanoma.
For `CN(C)CCSc1nccc(-c2cc3ccccc3s2)n1`, the TGI in the experiment on SF-539 CNS turned out to be 37.2 µM; in the experiment on HCT-116 colon it was 50.9 µM; in the experiment with KM12 colon, 48.2 µM; with SR leukemia, 63.4 µM; in the experiment on HOP-92 NSCLC it was 33.5 µM; in the experiment on UACC-62 melanoma, 40.4 µM. Besides, the TGI in the experiment on MALME-3M melanoma stood at 36 µM; in the experiment on HCT-15 colon, 37.6 µM.
